Entries after “also recorded” stand apart in the source; their conditions may differ.
Molecular target: T1, PERK (Mus musculus, UniProt Q9Z2B5)
T1 construct: from tissue; host or cells: mouse brain (C57BL/6 wild type; whole brain homogenates / frontal cortex)
T1 sequence (Q9Z2B5 29-1114): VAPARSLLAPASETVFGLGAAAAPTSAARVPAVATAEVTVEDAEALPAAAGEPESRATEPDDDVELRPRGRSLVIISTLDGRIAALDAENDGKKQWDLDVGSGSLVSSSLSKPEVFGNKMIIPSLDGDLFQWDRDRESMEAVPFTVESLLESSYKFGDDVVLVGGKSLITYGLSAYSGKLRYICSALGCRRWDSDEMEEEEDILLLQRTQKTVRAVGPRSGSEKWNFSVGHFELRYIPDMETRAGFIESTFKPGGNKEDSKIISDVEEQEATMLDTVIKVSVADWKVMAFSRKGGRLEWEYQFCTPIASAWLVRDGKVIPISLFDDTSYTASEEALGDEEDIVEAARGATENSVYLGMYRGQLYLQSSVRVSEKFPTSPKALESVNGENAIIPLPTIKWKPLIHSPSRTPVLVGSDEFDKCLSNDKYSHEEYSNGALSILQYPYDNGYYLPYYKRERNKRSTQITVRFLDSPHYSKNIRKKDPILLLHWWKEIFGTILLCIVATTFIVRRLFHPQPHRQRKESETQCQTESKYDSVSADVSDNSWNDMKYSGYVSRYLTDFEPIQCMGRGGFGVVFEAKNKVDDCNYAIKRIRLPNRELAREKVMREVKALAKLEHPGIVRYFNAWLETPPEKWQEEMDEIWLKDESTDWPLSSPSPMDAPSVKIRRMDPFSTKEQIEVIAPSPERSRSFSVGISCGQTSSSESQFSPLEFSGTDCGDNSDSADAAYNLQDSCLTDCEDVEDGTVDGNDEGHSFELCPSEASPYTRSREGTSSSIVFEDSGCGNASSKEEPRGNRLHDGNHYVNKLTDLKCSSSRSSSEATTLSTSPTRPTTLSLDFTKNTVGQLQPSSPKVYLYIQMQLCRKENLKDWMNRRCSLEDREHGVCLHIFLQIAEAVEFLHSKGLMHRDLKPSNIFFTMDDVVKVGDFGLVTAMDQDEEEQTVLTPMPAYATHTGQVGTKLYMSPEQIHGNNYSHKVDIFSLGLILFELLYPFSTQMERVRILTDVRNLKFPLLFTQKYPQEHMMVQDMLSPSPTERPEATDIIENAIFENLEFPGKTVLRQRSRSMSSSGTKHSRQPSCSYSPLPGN
Assay: Target engagement: Western blots of whole brain homogenates after intraperitoneal administration
Assay type: in vivo
Procedure: All animal work was conducted either on CR57BL/6 mice, obtained from Charles River Laboratories, Wilmington, Mass., USA, or on homozygous transgenic mice overexpressing human tau with the P301S mutation on a C57BL/6 background, originally developed by Michel Goedert (Xu et al. 2014), obtained by own breeding. Animals were kept at 23±1° C. under standard 12 h light-dark cycle with free access to food and water. They were handled according to the EU Council Directive 2010/63/EU, the Guide for the Care and Use of Laboratory Animals (National Research Council 2011) and the guidelines of the local institutional committee. The experiments were authorized by the local authority “Regierung von Oberbayern” under application number 55.2-1-54-2532-165-13.
5 mg of the PA compound CCT020312 (EMD Millipore, Billerica, Mass., USA) was first dissolved in 100 μl sterile DMSO (AppliChem, Darmstadt, Germany) and then diluted in sterile saline (B. Braun Medical, Melsungen, Germany) to achieve a stock solution of […].
For the initial short-term single-dose target-engagement trial, wild type mice were treated on three consecutive days with either 2 mg/kg of CCT020312 or saline of the equivalent volume by intraperitoneal injection. They were sacrificed by cervical dislocation four hours after the last injection.
For the short-term ascending-dose target-engagement trial, wild type mice at 15 weeks of age were treated on three consecutive days with once daily intraperitoneal (i.p.) injections of either 1, 2, or 5 mg/kg of CCT020312 or equivalent volumes of saline.
For the long-term single-dose target-engagement trial, wild type mice (n=3) at 9 weeks of age were treated for 6 weeks with once daily i.p. injections of either 2 mg/kg of CCT020312 or equivalent volumes of saline.
Mice were sacrificed by cervical dislocation twelve hours after the last injection. Their brains were frozen on dry ice and stored at −80° C. for Western blot analysis.
Frontal cortex tissue was dissected from the fresh-frozen sample on dry ice and suspended in 750 μl of T-PER Tissue Protein Extraction Reagent (Thermo Fisher Scientific) and 1× cOmplete Protease Inhibitor Cocktail Tablets (Hoffmann-La Roche) and 1× PhosSTOP Phosphatase Inhibitor Cocktail Tablets (Hoffmann-La Roche). The tissue piece was initially ground with a pestle inside a microcentrifuge tube on ice and then homogenized by sonification with Branson Sonifier 450 Analog (Branson, now Thermo Fisher Scientific) with 10×500 ms bursts at intensity level 3 on ice. The solution was then centrifuged at 5000 g for 15 minutes at 4° C. and the supernatant retrieved. Protein concentrations were determined using the BCA kit (Thermo Fisher Scientific) by heating the samples at 60° C. for 30 minutes and measuring the absorption on the NanoDrop 2000c spectrophotometer (Thermo Fisher Scientific).
20 μg of protein (200 μg for pPERK blots) were adjusted to equal concentrations between samples by dilution with M-PER and subsequently heated at 95° C. for 5 minutes with Roti®-Load 1 (Carl Roth). SDS-PAGE was performed using Any kD™ Mini-PROTEAN® TGX™ Gels (BioRad, Berkeley, Calif., USA) in a tris-glycine running buffer. The protein was blotted onto PVDF membrane (BioRad) at 70 V for 65 minutes whilst being cooled with ice. The membrane was blocked with 1× Roti®-Block solution (Carl Roth) for 1 h and then incubated at 4° C. overnight under gentle shaking with the primary antibody (see Table 6) in TBS with 5% BSA (Cell Signaling Technology) and 0.05% TWEEN (Sigma-Aldrich). The membranes were then washed and incubated with the species specific HRP-bound secondary antibody (Vector Laboratories, Burlingame, Calif., USA) at 1:2500 in 1× Roti®-Block solution for 2 h, followed by further washing and exposure to Clarity Western ECL Substrate (BioRad) or, in the case of MC1, to Amersham™ ECL™ Prime (GE Healthcare). […]

[1] = wild type mice, 2 mg/kg i.p. once daily for 6 weeks, 2 mg/kg
[2] = wild type mice, 1, 2 or 5 mg/kg i.p. once daily, three days

Structure (SMILES): CCN(CC)CCC(=O)N1N=C(c2c(-c3ccccc3)c3cc(Br)ccc3[nH]c2=O)CC1c1ccc(Br)cc1 (stereo not drawn) [CCT020312, 6-bromo-3-[5-(4-bromo-phenyl)-1-(3-diethylamino-propionyl)-4,5-dihydro-1H-pyrazol-3-yl]-4-phenyl-1H-quinolin-2-one]
- brain penetration (mice, intraperitoneal, inferred from brain pEIF2A): enters the brain
- pPERK in the brain (wild type mice, 2 mg/kg i.p. once daily for 6 weeks, vs saline, 2 mg/kg): increase; also recorded: significantly increased
- pNRF2 level in the brain [1]: significant increase; also recorded: significantly increased
- total NRF2 levels in the brain [1]: without significant change; also recorded: no significant upregulation
- total PERK level in the brain [1]: no obvious change; also recorded: no significant upregulation
- pEIF2A in whole brain extracts (wild type mice, 2 mg/kg i.p. once daily, three days, vs saline): marked increase
- pNRF2 level in brain [2]: dose-dependent increase
- total NRF2 in brain [2]: without significant change
- phosphorylated PERK in whole brain extracts (wild type mice, 1, 2 or 5 mg/kg i.p. once daily, three days, vs saline): marked increase; also recorded: significantly increased
